In assay [1] the target is T1, BCR-FMS BaF3 cells (Homo sapiens, UniProt P07333).
T1 construct: fused on or other part: P11274 (Breakpoint cluster region protein)
T1 sequence (P07333 582-910): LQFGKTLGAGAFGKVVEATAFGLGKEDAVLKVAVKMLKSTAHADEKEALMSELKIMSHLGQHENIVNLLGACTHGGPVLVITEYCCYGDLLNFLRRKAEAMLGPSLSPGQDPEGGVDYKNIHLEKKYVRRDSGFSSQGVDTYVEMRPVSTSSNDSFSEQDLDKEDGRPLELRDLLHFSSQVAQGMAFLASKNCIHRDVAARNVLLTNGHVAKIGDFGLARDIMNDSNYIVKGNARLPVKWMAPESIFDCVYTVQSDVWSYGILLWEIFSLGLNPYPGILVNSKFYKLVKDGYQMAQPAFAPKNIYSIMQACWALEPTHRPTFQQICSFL
The experiment in a line: BaF3 BCR-FMS cell proliferation assay (ATPlite). It counts as cell-based. The conditions noted are these: read-out: Inhibition of Cell Proliferation IC50, BCR/BaF3 Fms. An outline of the steps: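 IL-3-free growth, 3-day compound exposure (8-point 1:3 titration, top 10 μM, DMSO control), 37 °C 5% CO2. BaF3 10,000 or MV-4-11 25,000 cells/well, plated overnight beforehand. Read-out ATPlite luminescence vs concentration → IC50.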

The test system of assay [2] is SKNSH cells. The experiment in a line: SKNSH (human neuroblastoma) cell proliferation assay (ATPlite). The format is cell-based. The settings on record: SK-N-SH, read-out: Inhibition of Cell Proliferation IC50, SKNSH. As to the method: Compounds are assessed in a variety of cell based assays. For example BaF3 cells engineered with any of BCR-FMS, BCR-KIT, BCR-FLT3, BCR-NTRK1, BCR-NTRK2, and BCR-NTRK3, are used in cell proliferation assays to assess inhibitory activity of Fms, Kit, Flt-3, TrkA, TrkB, and TrkC, respectively. An MV-4-11 (leukemia) cell proliferation assay is used to assess inhibitory activity in Flt-3, and SKNSH (human neuroblastoma) cell proliferation assay is used to assess efficacy of Fms/Trk inhibitors. Additional cells may be assayed similarly to assess the efficacy of Fms/Trk inhibitors, such as MiaPaCa (human pancreatic cancer) and Capan-1 (human pancreatic carcinoma) cells. Reagent and assay conditions are as follows: • BaF3 cells: • Maintained in RPMI containing 10% FBS, 1% PenStrep, 1% NEAA, and 1% L-Glutamine, supplemented with 1 mg/mL G418 and 5% WEHI-CM (or recombinant murine IL-3). • Confluent cells are split 1:50 to 1:100 every 3-4 days. • MV-4-11 cells: • Maintained in Iscove's Modified Dulbecco's Medium containing 10% FBS. • Confluent cells are split 1:4 every 3-4 days. • SKNSH cells: RPMI containing 10% FBS. On day 1, cells are counted, then centrifuged in a conical tube for 5 minutes at 1000 rpm. The supernatant is removed and cells are re-suspended as follows: • BaF3: resuspend in growth media +1 mg/mL G418 (without WEHFIL-3) to 2×10^5 cells/mL. • MV-4-11: resuspend in growth media to 5×10^5 cells/mL. • SKNSH: resuspend in growth media to 2×10^4 cells/mL. The cells are plated (50 μL, 150 μL for SKNSH cells) in each well of a 96-well dish (Corning 3610) and incubated at 37° C. in 5% CO2 overnight, cells plated to a final concentration of cells as follows: • BaF3: 10,000 cells per well. • MV-4-11: 25,000 cells per well. • SKNSH: 3,000 cells per well. On day 2, compound at a maximum concentration of 5 mM is serially diluted 1:3 for a total of 8 point titration with DMSO as a control. A 1 μL aliquot of each dilution point is added to 249 μL growth media and 50 μL is added to a well containing cells, providing 10 μM compound for the maximum concentration point. The cells are incubated for 3 days at 37° C. in 5% CO2. For SKNSH cells, a 0.75 μL aliquot of appropriate dilution in DMSO is added to 150 μL of cells. On day 5, ATPlite 1 step Luminescence Assay System (Perkin Elmer #6016739) is brought to room temperature along with the cell cultures. ATPlite is added to each well as follows: • BaF3: 25 μL per well. • MV-4-11: 40 μL per well. • SKNSH: 20 μL per well. The cells are incubated at room temperature for 10 minutes, then luminescence is read on Safire reader. The measured luminescence correlates directly with cell number, such that the reading as a function of compound concentration is used to determine the IC50 value.
It is understood that the results of these assays may vary as assay conditions are varied. Inhibition levels determined under the conditions described herein represent a relative activity for the compounds tested under the specific conditions employed. The cell based assays are likely to show variability due to the complexity of the system and the sensitivity thereof to any changes in the assay conditions. […] Results for compounds that are tested and show substantially no inhibition below the highest tested concentration are represented as “-” in the tables below. In some instances, the compounds were not tested in all of the assays, or assay results were not valid, as indicated by NA in the tables below.

In assay [3] the target is Fms kinase (Homo sapiens, UniProt P07333). The experiment in a line: Fms kinase biochemical activity assay (AlphaScreen, biotin-(E4Y)10 phosphorylation). The conditions noted are these: 100 μM ATP; read-out: Biochemical Inhibition IC50 Fms. In short, it runs like this: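 AlphaScreen read-out (PY20 acceptor, streptavidin donor beads, EDTA stop) of biotin-(E4Y)10 phosphorylation, with IC50 taken from the concentration–signal curve. Reaction: 30 nM substrate, 100 μM ATP, 1 ng/well Fms, Hepes pH 7.5 with Mg2+/Mn2+, 5% DMSO, 20 min at 30 °C.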
Fms kinase, sequence (P07333 20-972): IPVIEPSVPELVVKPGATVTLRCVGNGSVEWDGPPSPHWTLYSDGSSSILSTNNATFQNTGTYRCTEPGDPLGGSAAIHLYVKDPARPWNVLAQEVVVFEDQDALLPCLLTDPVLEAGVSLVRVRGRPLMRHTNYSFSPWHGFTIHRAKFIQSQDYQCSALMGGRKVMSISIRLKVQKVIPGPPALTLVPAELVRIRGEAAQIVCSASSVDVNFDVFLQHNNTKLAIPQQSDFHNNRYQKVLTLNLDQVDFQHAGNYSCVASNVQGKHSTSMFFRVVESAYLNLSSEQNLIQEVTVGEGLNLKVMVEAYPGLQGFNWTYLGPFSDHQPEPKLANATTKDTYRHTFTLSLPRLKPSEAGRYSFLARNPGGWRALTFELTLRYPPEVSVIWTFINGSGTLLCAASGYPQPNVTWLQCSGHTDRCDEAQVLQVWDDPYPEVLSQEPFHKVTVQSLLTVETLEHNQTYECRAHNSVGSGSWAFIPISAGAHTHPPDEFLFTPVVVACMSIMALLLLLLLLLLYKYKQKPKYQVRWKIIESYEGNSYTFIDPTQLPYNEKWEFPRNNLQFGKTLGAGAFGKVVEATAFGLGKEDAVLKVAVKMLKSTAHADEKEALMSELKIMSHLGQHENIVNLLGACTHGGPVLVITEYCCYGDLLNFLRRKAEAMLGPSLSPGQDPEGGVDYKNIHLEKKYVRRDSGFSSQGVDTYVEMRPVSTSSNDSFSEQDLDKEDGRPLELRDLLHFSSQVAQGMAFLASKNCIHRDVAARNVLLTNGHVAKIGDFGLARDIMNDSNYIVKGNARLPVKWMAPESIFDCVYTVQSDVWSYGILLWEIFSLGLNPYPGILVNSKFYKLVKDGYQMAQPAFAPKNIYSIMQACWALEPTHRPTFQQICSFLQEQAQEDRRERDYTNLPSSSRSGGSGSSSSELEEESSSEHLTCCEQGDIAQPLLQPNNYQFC

As for `CNc1ncnc2[nH]cc(C(=O)c3ccc(NC4CCCCC4)nc3F)c12` [Compound P-4102, [6-(cyclohexylamino)-2-fluoro-3-pyridyl]-[4-(methylamino)-7H-pyrrolo[2,3-d]pyrimidin-5-yl]methanone], the IC50 in assay [1] is < 10 nM; in assay [2] it was < 1000 nM; in assay [3] it was < 100 nM.
With `COc1ccc(Nc2ccc(C(=O)c3c[nH]c4ncnc(NC5CC5)c34)c(F)n2)cn1` [Compound P-4126, [4-(cyclopropylamino)-7H-pyrrolo[2,3-d]pyrimidin-5-yl]-[2-fluoro-6-[(6-methoxy-3-pyridyl)amino]-3-pyridyl]methanone], the IC50 was < 10 nM in assay [1], < 100 nM in assay [2] and < 10 nM in assay [3].
In the case of `CNc1ncnc2[nH]cc(C(=O)c3ccc(Nc4ccc(C5CC5)nc4)nc3F)c12` [Compound P-4094, [6-[(6-cyclopropyl-3-pyridyl)amino]-2-fluoro-3-pyridyl]-[4-(methylamino)-7H-pyrrolo[2,3-d]pyrimidin-5-yl]methanone], the IC50 in assay [1] is < 100 nM; in assay [2], < 1000 nM; in assay [3], < 10 nM.
For `CCc1ccc(Nc2ccc(C(=O)c3c[nH]c4ncnc(NCC(F)(F)F)c34)c(F)n2)cn1` [Compound P-4120, [6-[(6-ethyl-3-pyridyl)amino]-2-fluoro-3-pyridyl]-[4-(2,2,2-trifluoroethylamino)-7H-pyrrolo[2,3-d]pyrimidin-5-yl]methanone] the same measures were < 100 nM, < 1000 nM and < 100 nM.
For `COc1ccc(Nc2ccc(C(=O)c3c[nH]c4ncnc(NCC(F)(F)F)c34)c(F)n2)cn1` [Compound P-4084, [2-fluoro-6-[(6-methoxy-3-pyridyl)amino]-3-pyridyl]-[4-(2,2,2-trifluoroethylamino)-7H-pyrrolo[2,3-d]pyrimidin-5-yl]methanone], in that order: < 10 nM, < 10000 nM and < 10 nM.
For `COc1cncc(Nc2ccc(C(=O)c3c[nH]c4ncnc(NC5CCCCC5)c34)c(F)n2)c1` [Compound P-4104, [4-(cyclohexylamino)-7H-pyrrolo[2,3-d]pyrimidin-5-yl]-[2-fluoro-6-[(5-methoxy-3-pyridyl)amino]-3-pyridyl]methanone] the same measures were < 100 nM, < 1000 nM and < 1000 nM.
For the compound `O=C(c1ccc(Nc2ccc(C(F)(F)F)nc2)nc1F)c1c[nH]c2ncnc(NC3CC3)c12` [Compound P-4091, [4-(cyclopropylamino)-7H-pyrrolo[2,3-d]pyrimidin-5-yl]-[2-fluoro-6-[[6-(trifluoromethyl)-3-pyridyl]amino]-3-pyridyl]methanone], the figures for the IC50 in assay [1], in assay [2] and in assay [3] were < 10 nM, < 100 nM and < 100 nM, respectively.
Take `Cc1ccc(Nc2ccc(C(=O)c3c[nH]c4ncnc(NCC(F)(F)F)c34)c(F)n2)cn1` [Compound P-4112, [2-fluoro-6-[(6-methyl-3-pyridyl)amino]-3-pyridyl]-[4-(2,2,2-trifluoroethylamino)-7H-pyrrolo[2,3-d]pyrimidin-5-yl]methanone]: the results for the IC50 in assay [1], in assay [2] and in assay [3] were < 100 nM, < 10000 nM and < 100 nM, respectively.
Consider `CCc1ccc(Nc2ccc(C(=O)c3c[nH]c4ncnc(NC)c34)c(F)n2)cn1` [Compound P-4124, [6-[(6-ethyl-3-pyridyl)amino]-2-fluoro-3-pyridyl]-[4-(methylamino)-7H-pyrrolo[2,3-d]pyrimidin-5-yl]methanone], for which the IC50 in assay [1] was < 10 nM; in assay [2] it was < 1000 nM; in assay [3], < 10 nM.
For `CNc1ncnc2[nH]cc(C(=O)c3ccc(Nc4cncc(OC)c4)nc3F)c12` [Compound P-4108, [2-fluoro-6-[(5-methoxy-3-pyridyl)amino]-3-pyridyl]-[4-(methylamino)-7H-pyrrolo[2,3-d]pyrimidin-5-yl]methanone], the figures for the IC50 in assay [1], in assay [2] and in assay [3] were < 100 nM, > 1000 nM and < 100 nM, respectively.
Regarding `CCCCNc1ncnc2[nH]cc(C(=O)c3ccc(Nc4ccc(CC)nc4)nc3F)c12` [Compound P-4100, [4-(butylamino)-7H-pyrrolo[2,3-d]pyrimidin-5-yl]-[6-[(6-ethyl-3-pyridyl)amino]-2-fluoro-3-pyridyl]methanone], the values for the IC50 in assay [1], in assay [2] and in assay [3] were < 100 nM, < 1000 nM and < 100 nM, respectively.
For the compound `CC(C)Nc1ncnc2[nH]cc(C(=O)c3ccc(NC4CCCCC4)nc3F)c12` [Compound P-4101, [6-(cyclohexylamino)-2-fluoro-3-pyridyl]-[4-(isopropylamino)-7H-pyrrolo[2,3-d]pyrimidin-5-yl]methanone], the IC50 in assay [1] was < 10 nM; in assay [2], < 1000 nM; in assay [3] it was < 100 nM.
For `Fc1cc(Cc2c[nH]c3ncnc(NC4CC4)c23)cnc1NC1CCC(F)(F)CC1` [Compound P-4127, N-cyclopropyl-5-[[6-[(4,4-difluorocyclohexyl)amino]-5-fluoro-3-pyridyl]methyl]-7H-pyrrolo[2,3-d]pyrimidin-4-amine] the same measures were < 10 nM, < 10000 nM and < 100 nM.
For `O=C(c1ccc(Nc2ccc(C3CC3)nc2)nc1F)c1c[nH]c2ncnc(NCC(F)(F)F)c12` [Compound P-4090, [6-[(6-cyclopropyl-3-pyridyl)amino]-2-fluoro-3-pyridyl]-[4-(2,2,2-trifluoroethylamino)-7H-pyrrolo[2,3-d]pyrimidin-5-yl]methanone] the same measures were < 100 nM, < 1000 nM and < 100 nM.
For `COc1ccc(Nc2ccc(C(=O)c3c[nH]c4ncnc(NC(C)(C)C)c34)c(F)n2)cn1` [Compound P-4055, [4-(tert-butylamino)-7H-pyrrolo[2,3-d]pyrimidin-5-yl]-[2-fluoro-6-[(6-methoxy-3-pyridyl)amino]-3-pyridyl]methanone] the same measures were < 1000 nM, < 1000 nM and < 100 nM.
On to `COc1cncc(Nc2ccc(C(=O)c3c[nH]c4ncnc(NCC(F)(F)F)c34)c(F)n2)c1` [Compound P-4103, [2-fluoro-6-[(5-methoxy-3-pyridyl)amino]-3-pyridyl]-[4-(2,2,2-trifluoroethylamino)-7H-pyrrolo[2,3-d]pyrimidin-5-yl]methanone], for which the values for the IC50 in assay [1], in assay [2] and in assay [3] were < 100 nM, > 1000 nM and < 1000 nM, respectively.
